What was measured:
[1] = tested on: HCT-116; experiment: Western blot analysis; format: cell-based, human; conditions: 100 ng/mL and 250 ng/mL IFN-γ
Description: (§1) Pyroptosis assay. Recombinant Human TNF-α (Cat #300-01A, PeproTech, Rocky Hill, NJ, USA) and Recombinant Human IFN-γ (Cat #300-02, PeproTech, Rocky Hill, NJ, USA) were purchased for use in western blot analysis while rhTRAIL was generated in-house. See Kim et al., J. Biol. Chem., 279, 40044-40052 (2004).
(§2) Western blot analysis. Cells were plated in a 6-well plate and incubated overnight before the spent media was replaced with drugged media. Drug treatment lasted for indicated durations. Protein was extracted using radioimmunoprecipitation (RIPA) assay buffer (Cat #R0278, Sigma-Aldrich, St. Louis, MO, USA) containing cOmplete™, Mini, EDTA-free Protease Inhibitor Cocktail (Cat #4693159001, Roche, Basel, Switzerland) from sub-confluent cells. Denaturing sample buffer was added, samples were boiled at 95° C. for ten minutes, and an equal amount of protein lysate was electrophoresed through NuPAGE™ 4 to 12%, bis-Tris, 1.5 mm, Mini Protein Gels (Invitrogen, Waltham, MA, USA) then transferred to PVDF membranes. The PVDF membrane was blocked with 5% non-fat milk (Sigma-Aldrich, St. Louis, MO, USA) in 1× TTBS. Primary antibodies were incubated with the transferred PVDF membrane in blocking buffer at 4° C. overnight. Secondary antibodies included Goat anti-Rabbit IgG (H+L) Secondary Antibody, HRP (Cat #31460, Invitrogen, Waltham, MA, USA), and Goat anti-Mouse IgG (H+L) Secondary Antibody, HRP (Cat #31430, Invitrogen, Waltham, MA, USA). The signal was detected using Pierce™ ECL Western Blotting Substrate (Cat #32106, Thermo Scientific, Waltham, MA, USA) and a Syngene Imaging System (RRID: SCR_015770).
(§3) Elraglusib uprequlates tumor cell PD-L1 and proapoptotic pathway expression as well as downregulates immunosuppressive/angiogenic protein expression and pro-survival pathways. The inventors performed Western blot analyses on colorectal cancer cells (HCT-116, HT-29) treated with elraglusib over a 72-hour time course. […] The inventors observed increases in PD-L1 expression as the treatment duration increased. To further elucidate the elraglusib-mediated effects on tumor cell survival, the inventors probed for survival factors Bcl-2 and Survivin and noted decreases in protein expression in both cell lines, especially at the later timepoints (forty-eight hours, seventy-two hours). […] HCT116 cells are heterozygous for β-catenin, harboring one wild-type allele and one mutant allele with inactivation of one of the residues phosphorylated by GSK-3β that is frequently mutated in tumors. Kaler, Augenlicht, & Klampfer, PLoS ONE, 7, e45462 (2012). HT-29, KM12C, and SW480 cells harbor APC mutations. Rowan et al., Proc. Natl. Acad. Sci. USA, 97, 3352 (2000).

[2] = tested on: HT-29; experiment: Western blot analysis; format: cell-based, human; conditions: 100 ng/mL and 250 ng/mL IFN-γ
Description: as §1, §2, §3

Substance: IFN-γ: Recombinant Human IFN-γ (PeproTech) used in western blot analysis
- gasdermin B expression [1]: increase
- gasdermin B expression [2]: increase

Reference: patent publication US20240041830A1, “CIRCULATING BIOMARKERS OF RESPONSE TO PD-1/PD-L1 BLOCKADE AND GSK-3 INHIBITION” (Brown University, priority 2022, published 2024)
